Reference: ChEMBL document CHEMBL2439949, “Synthesis and structure-activity relationships of phenyl-substituted coumarins with anti-tubercular activity that target FadD32” (Bioorg Med Chem Lett, 2013)
≈ marks a conversion by molar mass, not a printed value. Calls of active or inactive are those of the source. The calls are words filed in the database; no cut-off is given here.

How the values were obtained:
[1] = test system: Mycobacterium tuberculosis; assay: Antimycobacterial activity against Mycobacterium tuberculosis H37Rv after 7 days; format: functional; details: 168 h
HepG2 = assay: Cytotoxicity against human HepG2 cells at 125 uM after 48 hrs; format: cell-based; details: hepg2, 48 h
[2] = test system: Mycobacterium tuberculosis; assay: Antimycobacterial activity against Mycobacterium tuberculosis H37Rv at 250 uM after 7 days; format: functional
[3] = test system: Mycobacterium tuberculosis; assay: Antimycobacterial activity against Mycobacterium tuberculosis H37Rv at 64 uM after 7 days; format: functional, organism-based
[4] = Metabolic stability of the compound in human plasma assessed as compound remaining at 1 uM after 5 hrs; format: ADME, cell-free; details: read-out: Stability
[5] = Solubility in water; format: physicochemical
[6] = Plasma protein binding in human at 1 uM after 5 hrs; format: ADME, cell-free; details: read-out: PPB (converted)
[7] = Cytotoxicity against human HepG2 cells after 48 hrs; format: cell-based; details: read-out: LD50
[8] = AUClast in Balb/c mouse at 10 mg/kg, po; format: ADME, organism-based; design: time 0 - last, dose 10 mg/kg, route oral; details: plasma
[9] = Clearance in Balb/c mouse at 1 mg/kg, iv; format: ADME, organism-based; design: dose 1 mg/kg, route intravenous; details: in vivo
[10] = Tmax in Balb/c mouse at 10 mg/kg, po; format: ADME, organism-based; design: dose 10 mg/kg, route oral; details: in vivo
[11] = Tmax in Balb/c mouse at 1 mg/kg, iv; format: ADME, organism-based; design: dose 1 mg/kg, route intravenous; details: in vivo
[12] = MRTlast in Balb/c mouse at 1 mg/kg, iv; format: ADME, organism-based; design: dose 1 mg/kg, route intravenous; details: in vivo
[13] = AUClast in Balb/c mouse at 1 mg/kg, iv; format: ADME, organism-based; design: time 0 - last, dose 1 mg/kg, route intravenous; details: plasma
Mus musculus [14] = assay: Volume of distribution in Balb/c mouse at 10 mg/kg, po; format: ADME, organism-based; design: dose 10 mg/kg, route oral; details: in vivo
[15] = MRTlast in Balb/c mouse at 10 mg/kg, po; format: ADME, organism-based; design: dose 10 mg/kg, route oral; details: in vivo
[16] = AUC (0 to infinity) in Balb/c mouse at 10 mg/kg, po; format: ADME, organism-based; design: time infinity, dose 10 mg/kg, route oral; details: plasma
[17] = Oral bioavailability in Balb/c mouse at 10 mg/kg; format: ADME, organism-based; details: in vivo
[18] = Half life in Balb/c mouse at 10 mg/kg, po; format: ADME, organism-based; design: dose 10 mg/kg, route oral; details: in vivo
[19] = Half life in Balb/c mouse liver microsomes at 100 uM; format: ADME, Microsome
[20] = Intrinsic clearance in Balb/c mouse liver microsomes at 100 uM; format: ADME, Microsome; details: read-out: CLH
[21] = Metabolic stability of the compound in Balb/c mouse plasma assessed as compound remaining at 1 uM after 8 hrs; format: ADME, cell-free; details: read-out: Stability
[22] = Half life in Balb/c mouse at 1 mg/kg, iv; format: ADME, organism-based; design: dose 1 mg/kg, route intravenous; details: in vivo
[23] = Clearance in Balb/c mouse at 10 mg/kg, po; format: ADME, organism-based; design: dose 10 mg/kg, route oral; details: in vivo
[24] = Volume of distribution in Balb/c mouse at 1 mg/kg, iv; format: ADME, organism-based; design: dose 1 mg/kg, route intravenous; details: in vivo
[25] = Permeability of the compound from basolateral to apical side of human Caco2 cells at 10 uM; format: ADME, cell-based; details: Caco-2, read-out: permeability
Mus musculus [26] = assay: Initial plasma concentration in Balb/c mouse at 10 mg/kg, po; format: ADME, organism-based; design: dose 10 mg/kg, route oral; details: in vivo
[27] = AUC (0 to infinity) in Balb/c mouse at 1 mg/kg, iv; format: ADME, organism-based; design: time infinity, dose 1 mg/kg, route intravenous; details: plasma
[28] = Permeability of the compound from apical to basolateral side of human Caco2 cells at 10 uM; format: ADME, cell-based; details: Caco-2, read-out: permeability
[29] = Initial plasma concentration in Balb/c mouse at 1 mg/kg, iv; format: ADME, organism-based; design: dose 1 mg/kg, route intravenous
[30] = test system: Mycobacterium tuberculosis; assay: Antimycobacterial activity against Mycobacterium tuberculosis H37Rv at 62 uM after 7 days; format: functional, organism-based

## Cc1cc2oc(=O)cc(-c3ccccc3)c2c(C)c1-c1cccc(Cl)c1
[1]
  IC90: 260 µM

## C=Cc1ccc(-c2c(C)cc3oc(=O)cc(-c4ccccc4)c3c2C)cc1
[1]
  IC90: 184 µM

## Cc1cc2oc(=O)cc(-c3ccc(N)cc3)c2c(C)c1-c1ccc(CN2CCOCC2)cc1
[1]
  IC90: 14 µM

## CCOC(=O)Nc1cccc(-c2cc(=O)oc3cc(C)c(-c4ccc(CN5CCOCC5)cc4)c(C)c23)c1
[1]
  IC90: 39 µM

## CC(=O)Nc1cccc(-c2cc(=O)oc3cc(C)c(-c4ccc(CN5CCOCC5)cc4)c(C)c23)c1
[1]
  IC90: 12 µM
HepG2
  Activity: Non-toxic

## Cc1cc2oc(=O)cc(-c3ccccc3)c2c(C)c1-c1ccc(CN2CCN(C)CC2)cc1
[1]
  IC90: 5.89 µM
HepG2
  Activity: Non-toxic

## Cc1cc2oc(=O)cc(-c3ccccc3)c2c(C)c1-c1cccnc1
[1]
  IC90: 69 µM

## Cc1ccc(-c2c(C)cc3oc(=O)cc(C)c3c2C)cc1
[2]
  inhibition: inactive

## CNC(=O)c1ccc(-c2c(C)cc3oc(=O)cc(-c4ccccc4)c3c2C)cc1
[1]
  IC90: 7 µM
HepG2
  Activity: Non-toxic

## Cc1cc(C)c2c(-c3ccccc3)cc(=O)oc2c1
[1]
  IC90: 1100 µM

## Cc1cc2oc(=O)cc(-c3ccccc3)c2c(C)c1-c1ccc(Cl)cc1
[1]
  IC90: 54 µM

## Cc1cc2oc(=O)cc(-c3ccccc3)c2c(C)c1-c1cccc(F)c1
[1]
  IC90: 21 µM

## Cc1cc2oc(=O)cc(-c3ccccc3)c2c(C)c1Br
[3]
  Activity: inactive

## Cc1cc2oc(=O)cc(-c3cccc(NS(C)(=O)=O)c3)c2c(C)c1-c1ccc(CN2CCOCC2)cc1
[1]
  IC90: 59 µM

## Cc1cc2oc(=O)cc(-c3cccc([N+](=O)[O-])c3)c2c(C)c1-c1ccc(CN2CCOCC2)cc1
[1]
  IC90: 6 µM
HepG2
  Activity: Non-toxic

## Cc1cc(-c2c(C)cc3oc(=O)cc(-c4ccccc4)c3c2C)ccn1
[1]
  IC90: 36 µM

## Cc1cc2oc(=O)cc(-c3ccccc3)c2c(C)c1-c1ccc(CO)cc1
[4]
  remaining at 5 h, 1 µM: 80.3%
[1]
  IC90: 7 µM
HepG2
  Activity: Non-toxic
[5]
  solubility: 0.2 µM (≈ 0.0713 µg/mL)
[6]
  fraction unbound at 5 h, 1 µM: 0.006

## Cc1cc2oc(=O)cc(-c3ccccc3)c2c(C)c1-c1cncnc1
[1]
  IC90: 8 µM

## Cc1ccc(-c2c(C)cc3oc(=O)cc(-c4ccccc4)c3c2C)cc1
[1]
  IC90: 36 µM

## COC(=O)c1cccc(-c2cc(=O)oc3cc(C)c(-c4ccc(CN5CCOCC5)cc4)c(C)c23)c1
[1]
  IC90: 59 µM

## Cc1cc2oc(=O)cc(-c3ccccc3)c2c(C)c1-c1ccccc1Cl
[1]
  IC90: 22 µM
HepG2
  Activity: Non-toxic

## Cc1cc2oc(=O)cc(-c3ccccc3)c2c(C)c1-c1ccc(CN2CCOCC2)cc1
[4]
  remaining at 5 h, 1 µM: 84.4%
[1]
  IC90: 0.5 µM
HepG2
  Activity: Non-toxic
[5]
  solubility: 36.1 µM (≈ 15.4 µg/mL)
[6]
  fraction unbound at 5 h, 1 µM: 0.014

## CCCCCCNCc1ccc(-c2c(C)cc3oc(=O)cc(-c4ccccc4)c3c2C)cc1
[1]
  IC90: 4 µM

## Cc1cc2oc(=O)cc(-c3ccccc3)c2c(C)c1-c1ccc(CNC2CCCCC2)cc1
[7]
  CC50 at 48 h: 32 µM
[1]
  IC90: 5 µM
HepG2
  Activity: Non-toxic

## Cc1cc2oc(=O)cc(-c3ccccc3)c2c(C)c1-c1ccc(C)c2ccccc12
[3]
  Activity: inactive

## Cc1ccc(/C=C/c2c(C)cc3oc(=O)cc(-c4ccccc4)c3c2C)cc1
[1]
  IC90: 61 µM

## Cc1c(-c2ccc(CO)cc2)ccc2oc(=O)cc(-c3ccccc3)c12
[1]
  IC90: 70 µM

## Cc1cc2oc(=O)cc(-c3ccccc3)c2c(C)c1-c1ccc(C(F)(F)F)cc1
[1]
  IC90: 29 µM

## Cc1cc2oc(=O)cc(-c3ccccc3)c2c(C)c1-c1ccc(C(C)O)cc1 (stereo not drawn)
[1]
  IC90: 4 µM
HepG2
  Activity: Non-toxic

## Cc1cc(-c2ccc3oc(=O)cc(-c4ccccc4)c3c2)c(C)cc1CO
[1]
  IC90: 170 µM

## Cc1ccc(-c2ccc3oc(=O)cc(-c4ccccc4)c3c2)cc1
[2]; 168 h
  inhibition at 250 µM: 24%

## Cc1cc2oc(=O)cc(-c3cccc(N)c3)c2c(C)c1-c1ccc(CN2CCOCC2)cc1.Cl.Cl
[8]
  AUC(0-t): 3180 ng·h/mL
[9]
  clearance: 31.1 mL/min/kg
[10]
  Tmax: 2 h
[11]
  Tmax: 4.98 min
[12]
  MRT last: 1.36 h
[13]
  AUC(0-t): 513 ng·h/mL
Mus musculus [14]
  Vd: 12.25 L/kg
[15]
  MRT last: 4.31 h
[16]
  AUC(0-inf): 3190 ng·h/mL
[17]
  bioavailability: 62%
[18]
  half-life: 2.71 h
[19]
  half-life at 100 µM: 8.63 h
[20]
  CLint scaled at 100 µM: 80.3 mL/min/kg
[21]
  remaining at 8 h, 1 µM: 112%
[22]
  half-life: 1.45 h
[23]
  CL/F: 52.3 mL/min/kg
[24]
  Vd: 3.91 L/kg
[25]
  Papp B→A at 10 µM: 76.9 ×10⁻⁶ cm/s
Mus musculus [26]
  C0: 642.06 ng/mL
[27]
  AUC(0-inf): 536 ng·h/mL
[28]
  Papp A→B at 10 µM: 34.5 ×10⁻⁶ cm/s
[29]
  C0: 851 ng/mL

## Cc1cc2oc(=O)cc(-c3ccccc3)c2c(C)c1-c1cccc(C(F)(F)F)c1
[3]
  Activity: inactive

## CC(=O)c1ccc(-c2c(C)cc3oc(=O)cc(-c4ccccc4)c3c2C)cc1
[1]
  IC90: 220 µM

## Cc1cc2oc(=O)cc(-c3ccccc3)c2c(C)c1-c1ccc(F)cc1
[1]
  IC90: 26 µM

## Cc1cc2oc(=O)cc(-c3cccnc3)c2c(C)c1-c1ccc(CN2CCOCC2)cc1
[1]
  IC90: 1 µM
HepG2
  Activity: Non-toxic

## Cc1cc2oc(=O)cc(-c3ccccc3)c2c(C)c1-c1ccc(C#N)cc1
[1]
  IC90: 295 µM

## O=c1cc(-c2ccccc2)c2cc(-c3ccc(CO)cc3)ccc2o1
[1]
  IC90: 115 µM

## Cc1cc2oc(=O)cc(-c3ccccc3)c2c(C)c1-c1ccc(CN2CCCCC2)cc1
[1]
  IC90: 19 µM
HepG2
  Activity: Non-toxic

## Cc1cc2oc(=O)cc(-c3cccc(N)c3)c2c(C)c1-c1ccc(CN2CCOCC2)cc1
[4]
  remaining at 5 h, 1 µM: 88%
[1]
  IC90: 0.4 µM
[5]
  solubility: 89.3 µM (≈ 39.3 µg/mL)
[6]
  fraction unbound at 5 h, 1 µM: 0.013

## Cc1cc2oc(=O)cc(-c3ccccc3)c2c(C)c1-c1ccncc1
[4]
  remaining at 5 h, 1 µM: 83.5%
[1]
  IC90: 2 µM
HepG2
  Activity: Non-toxic
[5]
  solubility: 3.2 µM (≈ 1.05 µg/mL)
[6]
  fraction unbound at 5 h, 1 µM: 0.012

## Cc1cc(CO)ccc1-c1c(C)cc2oc(=O)cc(-c3ccccc3)c2c1C
[1]
  IC90: 22 µM
HepG2
  Activity: Non-toxic

## COc1ccccc1-c1c(C)cc2oc(=O)cc(-c3ccccc3)c2c1C
[3]
  Activity: inactive

## Cc1cc2oc(=O)cc(-c3ccccc3)c2cc1-c1ccc(CO)cc1
[1]
  IC90: 68 µM

## COc1ccc(C2=CC(=O)Cc3cc(C)c(-c4ccc(CN5CCOCC5)cc4)c(C)c32)cc1
[30]
  Activity: inactive

## COc1cccc(-c2c(C)cc3oc(=O)cc(-c4ccccc4)c3c2C)c1
[1]
  IC90: 31 µM
